Experimental data as given in the CheMixHub drug solubility set.

Assay: xn = mol fraction of the nth substance listed, in the solute-free solvent

COC(=O)Nc1nc2ccccc2[nH]1 + CCCO + O
solubility (g/100 g solution)
Conditions | 278.15 K | 283.15 K | 288.15 K | 293.15 K | 298.15 K | 303.15 K | 308.15 K | 313.15 K | 318.15 K
x2 = 0.03228 | 0.000759 | 0.000937 | 0.00117 | 0.00145 | 0.00179 | 0.00212 | 0.00255 | 0.00307 | 0.00365
x2 = 0.06986 | 0.00122 | 0.00153 | 0.00195 | 0.00246 | 0.00308 | 0.00372 | 0.00456 | 0.00552 | 0.00671
x2 = 0.1138 | 0.00157 | 0.00198 | 0.00262 | 0.00333 | 0.00428 | 0.00526 | 0.0066 | 0.00814 | 0.01
x2 = 0.1665 | 0.0017 | 0.00223 | 0.00302 | 0.00394 | 0.00516 | 0.00653 | 0.00832 | 0.0105 | 0.0132
x2 = 0.2308 | 0.0017 | 0.00229 | 0.00318 | 0.00426 | 0.0057 | 0.00739 | 0.00966 | 0.0124 | 0.016
x2 = 0.3105 | 0.00161 | 0.00218 | 0.0032 | 0.00441 | 0.00599 | 0.00796 | 0.0107 | 0.0141 | 0.0185
x2 = 0.4108 | 0.00149 | 0.0021 | 0.00313 | 0.00441 | 0.00614 | 0.00837 | 0.0115 | 0.0155 | 0.0208
x2 = 0.5455 | 0.00136 | 0.00196 | 0.00302 | 0.00436 | 0.00622 | 0.0087 | 0.0123 | 0.0169 | 0.0232
x2 = 0.7314 | 0.00123 | 0.00179 | 0.00287 | 0.00425 | 0.00617 | 0.00889 | 0.0128 | 0.0181 | 0.0254

Cl.NC1CCSC1=O (configuration not stated) + CO + CC#N
solubility (g/100 g solution)
Conditions | x2 = 0.1 | x2 = 0.2 | x2 = 0.3 | x2 = 0.4 | x2 = 0.5 | x2 = 0.6 | x2 = 0.7 | x2 = 0.8 | x2 = 0.9
283.15 K | 0.153 | 0.482 | 1.04 | 1.98 | 3.18 | 4.35 | 4.99 | 5.63 | 6.22
293.15 K | 0.155 | 0.525 | 1.13 | 2.12 | 3.55 | 4.89 | 6.04 | 6.92 | 7.84
303.15 K | 0.17 | 0.539 | 1.22 | 2.35 | 3.91 | 5.55 | 6.97 | 8.29 | 9.23
313.15 K | 0.177 | 0.556 | 1.32 | 2.56 | 4.25 | 6.26 | 7.78 | 9.55 | 10.7
323.15 K | 0.194 | 0.6 | 1.46 | 2.83 | 4.71 | 7.06 | 8.51 | 10.9 | 12.3

NC(N)=C([N+](=O)[O-])[N+](=O)[O-] + CS(C)=O + CCC(C)=O
solubility (g/100 g solution)
Conditions | 293.15 K | 298.15 K | 303.15 K | 308.15 K | 313.15 K | 318.15 K | 323.15 K | 328.15 K | 333.15 K
x2 = 0.1228 | 2.96 | 3.02 | 3.23 | 3.43 | 3.66 | 3.88 | 4.15 | 4.41 | 4.69
x2 = 0.2395 | 6.6 | 7.02 | 7.36 | 7.71 | 8.11 | 8.5 | 8.9 | 9.32 | 9.81
x2 = 0.3506 | 10.8 | 11.4 | 11.7 | 12.2 | 12.7 | 13.1 | 13.6 | 14.2 | 14.8
x2 = 0.4565 | 14.7 | 15.3 | 15.7 | 16.2 | 16.7 | 17.2 | 17.8 | 18.4 | 19
x2 = 0.5575 | 18.4 | 19.1 | 19.6 | 20 | 20.6 | 21.1 | 21.7 | 22.4 | 23
x2 = 0.6539 | 21.6 | 22.1 | 22.7 | 23.2 | 23.8 | 24.4 | 25 | 25.6 | 26.4
x2 = 0.7462 | 24.1 | 24.8 | 25.3 | 25.7 | 26.3 | 26.9 | 27.5 | 28.1 | 28.8
x2 = 0.8344 | 26.2 | 26.7 | 27.2 | 27.7 | 28.2 | 28.8 | 29.4 | 30 | 30.7
x2 = 0.9189 | 27.9 | 28.7 | 29.2 | 29.6 | 30.1 | 30.6 | 31.2 | 31.9 | 32.5

CC(C)C(=O)Nc1ccc([N+](=O)[O-])c(C(F)(F)F)c1 + CC(C)O + O
solubility (g/100 g solution)
Conditions | 278.15 K | 283.15 K | 288.15 K | 293.15 K | 298.15 K | 303.15 K | 308.15 K | 313.15 K | 318.15 K | 323.15 K
x2 = 0.03225 | 0.00411 | 0.00535 | 0.00694 | 0.00908 | 0.0116 | 0.0149 | 0.0187 | 0.0236 | 0.0297 | 0.0366
x2 = 0.06974 | 0.0295 | 0.0376 | 0.0488 | 0.0614 | 0.0768 | 0.0971 | 0.121 | 0.15 | 0.185 | 0.226
x2 = 0.1139 | 0.145 | 0.182 | 0.228 | 0.279 | 0.342 | 0.415 | 0.505 | 0.598 | 0.707 | 0.853
x2 = 0.1666 | 0.533 | 0.638 | 0.775 | 0.929 | 1.12 | 1.32 | 1.54 | 1.82 | 2.11 | 2.46
x2 = 0.2307 | 1.53 | 1.83 | 2.16 | 2.51 | 2.97 | 3.45 | 3.99 | 4.54 | 5.22 | 5.9
x2 = 0.3103 | 3.62 | 4.25 | 5 | 5.84 | 6.78 | 7.81 | 9.03 | 10.4 | 11.7 | 13.3
x2 = 0.4117 | 6.94 | 8.23 | 9.52 | 11.1 | 12.8 | 14.6 | 16.6 | 18.9 | 21.3 | 23.8
x2 = 0.5454 | 11.6 | 13.6 | 15.6 | 17.6 | 20.1 | 22.3 | 25 | 28.1 | 30.8 | 33.6
x2 = 0.7297 | 16.9 | 19.1 | 21.6 | 24.2 | 27.3 | 30.4 | 33 | 36.1 | 39.4 | 42.8
